Assay results from article PMC10664828, “Tetrazole and acylsulfonamide bioisosteric replacements of the carboxylic acid in a dual MCL-1/BCL-xL inhibitor are tolerated” (RSC Advances, 2023).
Read-outs that look alike come from different tables or passages of the source.

What was measured:
BCL-xL [1] = molecular target: T1, BCL-xL (Homo sapiens, UniProt Q07817); experiment: Fluorescence polarization competition assay (FPCA) with FITC-Bak, BCL-xL; assay type: binding; conditions: for Ki: read-out: K i (BCL-xL)
T1 construct: (or 15 nM Bcl-xL^2-212 (R&D Systems)); b80 says SinBiological
T1 sequence (Q07817 2-212): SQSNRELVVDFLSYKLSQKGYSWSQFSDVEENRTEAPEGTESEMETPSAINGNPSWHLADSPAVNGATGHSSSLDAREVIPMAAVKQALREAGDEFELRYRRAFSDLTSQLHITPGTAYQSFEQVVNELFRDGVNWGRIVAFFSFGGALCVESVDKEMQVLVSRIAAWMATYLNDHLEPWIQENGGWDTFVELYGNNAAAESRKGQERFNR
Description: BCl-xL was purchased from SinBiological.
(§1) Fluorescence polarization experiments were conducted using a BMG PHERAstar FS multimode microplate reader equipped with two PMTs for simultaneous measurements of the perpendicular and parallel fluorescence emission. The assays were performed in black polypropylene 384-well microplate (Costar) with a final volume of […]. […] For the fluorescence polarization competition titrations, an equation derived by Nikolovska-Coleska et al.[16] was used to calculate the Ki from the IC50 data. All experiments were run in three biological replicates, each in triplicate.

MCL-1 [2] = molecular target: T2, MCL-1 (Homo sapiens, UniProt Q07820); experiment: Fluorescence polarization competition assay (FPCA) with FITC-Bak, MCL-1; assay type: binding; conditions: for fold better MCL-1 affinity than parent compound 1: relative to compound 1; for MCL-1 inhibition in FPCA (in words): cell-free MCL-1 binding assay
T2 construct: His6-MBP (cleaved yes); made in house; host or cells: E. coli
T2 sequence (Q07820 172-327): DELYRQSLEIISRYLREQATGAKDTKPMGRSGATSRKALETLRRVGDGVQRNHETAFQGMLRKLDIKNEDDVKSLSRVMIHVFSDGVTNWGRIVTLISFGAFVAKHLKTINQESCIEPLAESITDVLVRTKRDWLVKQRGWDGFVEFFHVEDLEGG
Description: The tagged protein was initially purified from the crude cell lysate by IMAC chromatography (GE Healthcare Life Sciences), and after dialysis to remove the imidazole the affinity tag was cleaved using PreScission Protease (GE Healthcare Life Sciences). A Sephacryl S-200 size exclusion column was used as a final purification step before the protein was concentrated with a 10 000 MWCO centrifugal filter concentrator (Millipore).
as §1

[3] = cited from earlier work
HL60 cells = experiment: CellTiter-Blue cell viability assay; assay type: cell-based; conditions: Homo sapiens
Description: Cell viability studies were conducted using the CellTiter-Blue® (Promega, Madison, WI) assay. Briefly, HL60 cells, were seeded in a 96-well plate and maintained at 37 °C with 5% CO2 for 24 h. The cells were then exposed to test compounds at 11 concentrations ranging from 0 to 20 mM. After 72 h, cell viabilities were then determined according to the manufacturer's instructions.

MCL-1 [4] = molecular target: T2, MCL-1; conditions: Table 2; FPCA; read-out: K i (MCL-1); cited from earlier work
BCL-xL [5] = molecular target: T1, BCL-xL; conditions: Table 2; FPCA; read-out: K i (BCL-xL); cited from earlier work
[6] = Table 1, FPCA, 100 nM Mcl-1 172-327, 10 nM FITC-Bak, read-out: K i
[7] = HL-60, 72 h, 10% FBS, 72 h, read-out: HL60 IC50
[8] = HL-60, 72 h, […] FBS, 72 h, read-out: HL60 IC50
[9] = Table 2, FPCA, read-out: K i (MCL-1)

| Ki (BCL-xL [1]) [µM] | Ki (MCL-1 [2]; read-out: K i) [µM] | IC50 (HL60 cells; [7]) [µM] | IC50 (HL60 cells; [8]) [µM] | Ki (MCL-1 [2]; [9]) [µM] | Structure (SMILES) | also measured |
| --- | --- | --- | --- | --- | --- | --- |
| 2.34 ± 0.22 | 1.95 ± 0.22 |  |  |  | O=C(NS(=O)(=O)c1ccccc1)c1ccc(N(Cc2ccccc2)S(=O)(=O)c2ccc(Oc3ccccc3)cc2)cc1O [Compound 7b, 4-(N-Benzyl-4-phenoxyphenylsulfonamido)-2-hydroxy-N-(phenylsulfonyl)benzamide] | fold improvement in BCL-xL inhibitory activity (BCL-xL [1]; relative to 7a): 3 fold; fold better MCL-1 affinity than parent compound 1 (MCL-1 [2]): ≥ 2 fold |
|  |  |  |  |  | CC(C)CN(c1ccc(C(=O)NO)c(O)c1)S(=O)(=O)c1ccc(Oc2ccccc2)cc1 [Compound 4, N,2-Dihydroxy-4-(N-isobutyl-4-phenoxyphenylsulfonamido)benzamide] | pKa ([3]; value of the functional group): 8–9; Ki (MCL-1 [2]; [6]): 70.6 ± 5.8 µM |
|  |  |  |  | 1.4 ± 0.47 | Cc1cc(Oc2ccc(S(=O)(=O)N(Cc3ccccc3)c3ccc(O)c(C(=O)O)c3)cc2)cc(C)c1Cl [Compound 27, 5-(N-Benzyl-4-(4-chloro-3,5-dimethylphenoxy)phenylsulfonamido)-2-hydroxybenzoic acid] | Ki (BCL-xL [1]; Table 2, FPCA, 15 nM Bcl-xL 2-212, 10 nM FITC-Bak): 1.82 ± 0.23 µM |
| 1.05 ± 0.14 |  |  |  | 1.23 ± 0.15 | O=C(NS(=O)(=O)c1ccc(NCC2CCOCC2)c([N+](=O)[O-])c1)c1ccc(N(Cc2ccccc2)S(=O)(=O)c2ccc(Oc3ccccc3)cc2)cc1O [Compound 7c, 4-(N-Benzyl-4-phenoxyphenylsulfonamido)-2-hydroxy-N-((3-nitro-4-(((tetrahydro-2H-pyran-4-yl)methyl)amino)phenyl)sulfonyl)benzamide] |  |
| 1.82 ± 0.18 |  | > 120 | 7.45 | 0.8 ± 0.07 | Cc1cc(Oc2ccc(S(=O)(=O)N(Cc3ccccc3)c3ccc(C(=O)NS(=O)(=O)c4ccc(NCC5CCOCC5)c([N+](=O)[O-])c4)c(O)c3)cc2)cc(C)c1Cl [Compound 7d, 4-(N-Benzyl-4-(4-chloro-3,5-dimethylphenoxy)phenylsulfonamido)-2-hydroxy-N-((3-nitro-4-(((tetrahydro-2H-pyran-4-yl)methyl)amino)phenyl)sulfonyl)benzamide] |  |
|  | > 500 | 76.4 | 68.1 |  | COC(=O)c1ccc(N(CC(C)C)S(=O)(=O)c2ccc(Oc3ccccc3)cc2)cc1O [Compound 2, Methyl 2-hydroxy-4-(N-isobutyl-4-phenoxyphenylsulfonamido)benzoate] | MCL-1 inhibition in FPCA (in words) (MCL-1 [2]): inactive |
| 7.22 ± 1.07 |  |  |  | 2.94 ± 0.35 | CS(=O)(=O)NC(=O)c1ccc(N(Cc2ccccc2)S(=O)(=O)c2ccc(Oc3ccccc3)cc2)cc1O [Compound 7a, 4-(N-Benzyl-4-phenoxyphenylsulfonamido)-2-hydroxy-N-(methylsulfonyl)benzamide] | fold weaker BCL-xL inhibition than parent compound 17cd (BCL-xL [1]; relative to 17cd): about 4 fold; Ki (MCL-1 [2]; [6]): 2.94 ± 0.35 µM; fold better MCL-1 affinity than parent compound 1 (MCL-1 [2]): ≥ 2 fold |
|  | > 500 |  |  |  | CC(C)CN(c1ccc(-c2cc(=O)[nH]o2)cc1)S(=O)(=O)c1ccc(Oc2ccccc2)cc1 [Compound 6, N-Isobutyl-N-(4-(3-oxo-2,3-dihydroisoxazol-5-yl)phenyl)-4-phenoxybenzenesulfonamide] | pKa ([3]; value of the functional group): 4–5; MCL-1 inhibition in FPCA (in words) (MCL-1 [2]): no inhibition |
|  |  | > 120 | 18.5 |  | CC(C)CN(c1ccc(C(=O)O)c(O)c1)S(=O)(=O)c1ccc(Oc2ccccc2)cc1 [Compound 1] |  |
|  | > 500 |  |  |  | CC(C)CN(c1ccc(C#N)c(O)c1)S(=O)(=O)c1ccc(Oc2ccccc2)cc1 [Compound 8, N-(4-Cyano-3-hydroxyphenyl)-N-isobutyl-4-phenoxybenzenesulfonamide] | pKa ([3]; cyanophenol, no reference given): about 7; MCL-1 inhibition in FPCA (in words) (MCL-1 [2]): no inhibition |
|  |  | 53.2 | 5.79 |  | Cc1cc(Oc2ccc(S(=O)(=O)N(Cc3ccccc3)c3ccc(C(=O)O)c(O)c3)cc2)cc(C)c1Cl [Compound 17cd, reference compound] | IC50 (HL60 cells; HL-60, text of introduction, read-out: IC50, viability of human leukemia HL60 cells): 18.5 µM |
|  |  | > 120 | 15.7 |  | CC(C)CN(c1ccc(-c2nn[nH]n2)cc1)S(=O)(=O)c1ccc(Oc2ccccc2)cc1 [Compound 5, N-(4-(2H-Tetrazol-5-yl)phenyl)-N-isobutyl-4-phenoxybenzenesulfonamide] | pKa ([3]; value of the functional group): 4–5; Ki (MCL-1 [2]; [6]): 3.29 ± 0.26 µM; fold better MCL-1 affinity than parent compound 1 (MCL-1 [2]): ≥ 2 fold |
| 1.54 ± 0.23 |  |  |  | 1.01 ± 0.08 | Cc1cc(Oc2ccc(S(=O)(=O)N(Cc3ccccc3)c3ccc(O)c(C(=O)NS(=O)(=O)c4ccc(NCC5CCOCC5)c([N+](=O)[O-])c4)c3)cc2)cc(C)c1Cl [Compound 29, 5-(N-Benzyl-4-(4-chloro-3,5-dimethylphenoxy)phenylsulfonamido)-2-hydroxy-N-((3-nitro-4-(((tetrahydro-2H-pyran-4-yl)methyl)amino)phenyl)sulfonyl)benzamide] |  |
|  |  | > 120 | 9.82 |  | Cc1cc(Oc2ccc(S(=O)(=O)N(CC(C)C)c3ccc(O)c(C(=O)O)c3)cc2)cc(C)c1Cl [Compound 6e-OH-5, reference compound] | Ki (MCL-1 [4]): 0.778 ± 0.041 µM; Ki (BCL-xL [5]): 2.19 ± 0.19 µM |

| Structure (SMILES) | Ki (BCL-xL [1]) [µM] | Ki (MCL-1 [2]; read-out: K i) [µM] | IC50 (HL60 cells; [7]) [µM] | IC50 (HL60 cells; [8]) [µM] | Ki (MCL-1 [2]; [9]) [µM] | also measured |
| --- | --- | --- | --- | --- | --- | --- |
| CC(=O)OCOC(=O)c1ccc(N(CC(C)C)S(=O)(=O)c2ccc(Oc3ccccc3)cc2)cc1O [Compound 3, Acetoxymethyl 2-hydroxy-4-(N-isobutyl-4-phenoxyphenylsulfonamido)benzoate] |  | > 500 | > 120 | 46.4 |  | MCL-1 inhibition in FPCA (in words) (MCL-1 [2]): inactive |
